Patent US11753418B2, “Compounds for the modulation of Myc activity” (Syros Pharmaceuticals, Inc., priority 2015, dated 2023)
Counter-ions that a name gives are not always drawn.

Key:
c-Myc/Max/Ebox DNA = target: T1, c-Myc/Max/Ebox DNA (Homo sapiens, UniProt P01106); test: c-Myc/Max/Ebox DNA AlphaScreen Assay; type: binding; conditions: free c-Myc 20 nM, his6-Max 5 nM, biotinylated Ebox oligo 10 nM, 2 hour incubation
T1 construct: his6 (cleaved yes)
Method: Compounds of the invention were assayed for c-Myc/Max/EBox activity as described in the following protocol. Human his6-c-Myc and his6-Max were used with biotinylated DNA containing a single Ebox sequence (biotin[…]) purchased from MWG Operon. Free c-Myc was generated from his6-c-Myc through thrombin cleavage of the his6 tag. For 384-well plate assays, 10 μL of a 2× solution of free c-Myc (20 nM final), Ni^2+ coated Acceptor Beads (25 μg/ml final), and biotinylated Ebox oligo (10 nM final) were added to 384-well plates with a Biotek EL406 liquid handler. 50 nL of compounds from stock plates were added by pin transfer using a Janus Workstation (PerkinElmer), allowing the compounds to interact with c-Myc prior to c-Myc binding with Max. In the current assay, DMSO was not allowed to exceed 2% v/v of the assay. 10 μl of 2× master mix containing streptavidin-coated donor beads (25 μg/ml final) and his6-Max (5 nM) were added. AlphaScreen measurements were performed on an Envision plate reader (PerkinElmer) utilizing the manufacturer's protocol.
Both master mixes were made in room temperature assay buffer (50 mM HEPES, 150 mM NaCl, 0.2% w/v BSA, 0.02% w/v Tween20, 40 μg/ml glycogen, 500 μM DTT, pH 8.0, wherein both DTT and glycogen were added fresh). Alpha beads were added to respective master solutions. All subsequent steps were performed in low light conditions. Solution 1: 2× solution of components with final concentrations of c-Myc Ni-coated Acceptor Beads (25 μg/ml), and biotinylated Ebox oligo (10 nM). Solution 2: 2× solution of streptavidin-coated donor beads (25 μg/ml final) and his6-Max […]. Solution 1 was added to 384-well plate (AlphaPlate-384, PerkinElmer) with Biotek EL406 liquid handler and the plates were centrifuged very briefly. 50 nL of compounds from stock plates were added by pin transfer using a Janus Workstation. Solution 2 (10 μL) was added with the liquid handler. Plates were sealed with foil to block light exposure and prevent evaporation. Plates were very briefly centrifuged followed by 2 hour incubation. AlphaScreen measurements were performed on an Envision 2104 utilizing the manufacturer's protocol. Excitation was at 680 nm for donor bead release of singlet oxygen and emission was read with a bandpass filter from 520-620 nm. Glycogen: Roche Diagnostics #10901393001. Plate 1536: Perkin Elmer, 6004350. Plate 384: Perkin Elmer, 6005350. Nickel-His Alpha Beads: 6760619R. The data from this assay are summarized in Table 3 below (Myc/Max/DNA Activity).

[1] = tested on: human small lung cancer cell line H2171; test: Cell Viability Assay (ATPlite); type: cell-based; conditions: NCI-H2171, 72 h, H2171 cells, incubated for three days, ATPlite readout
Method: Compounds of the invention were assayed for cell viability using the human small lung cancer cell line H2171 as described in the following protocol. Cells were counted and adjusted to 20,000 cells/mL. Using a Biotek EL406, 50 μL of cells in media were distributed into 384 well white plates from Thermo. Immediately after plating, compound in DMSO was distributed to plates. Compounds were added to plates using a 50 nL 384 well pin transfer manifold on a Janus workstation. Stocks were arrayed in 10 point dose response in DMSO stock in 384 well Greiner compound plates. After the addition of compounds, plates were incubated for three days in a 37° C. incubator. Cell viability was read out using ATPlite from Perkin Elmer. Lyophilized powder was resuspended in lysis buffer and diluted 1:2 with deionized water. 25 μL of this solution was added to each well using the Biotek liquid handler. Plates were incubated for 15 minutes at room temperature before signal was read on an Envision Plate Reader. The data from this assay are summarized in Table 3 below (H2171 activity).

T1 sequence (P01106 whole entry): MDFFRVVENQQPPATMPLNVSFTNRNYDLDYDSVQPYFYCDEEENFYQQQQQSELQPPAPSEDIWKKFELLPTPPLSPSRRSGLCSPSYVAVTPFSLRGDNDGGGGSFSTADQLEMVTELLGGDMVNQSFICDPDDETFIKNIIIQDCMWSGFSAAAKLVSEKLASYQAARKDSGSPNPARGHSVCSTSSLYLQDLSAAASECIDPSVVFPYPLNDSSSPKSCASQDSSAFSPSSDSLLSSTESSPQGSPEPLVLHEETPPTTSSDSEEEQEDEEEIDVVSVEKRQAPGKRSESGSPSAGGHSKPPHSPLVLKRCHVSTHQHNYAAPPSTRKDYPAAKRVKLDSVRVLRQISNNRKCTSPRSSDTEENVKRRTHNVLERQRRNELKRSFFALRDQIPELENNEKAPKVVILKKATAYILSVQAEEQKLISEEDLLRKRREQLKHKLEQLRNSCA

CCC(C)NCCC(=O)Nc1sc2c(c1-c1nc3cnccc3s1)CCN(C(C)C)C2 (centres unmarked) [Compound 116, 3-(sec-butylamino)-N-(6-isopropyl-3-(thiazolo[4,5-c]pyridin-2-yl)-4,5,6,7-tetrahydrothieno[2,3-c]pyridin-2-yl)propanamide dihydrochloride]
IC50 (c-Myc/Max/Ebox DNA): < 500 nM
IC50 [1]: < 500 nM

O=C(CCN[C@H]1CC[C@]2(CCC(=O)N2)CC1)Nc1sc2c(c1-c1nc3cnccc3s1)CCNC2 [Compound 177]
IC50 (c-Myc/Max/Ebox DNA): < 500 nM
IC50 [1]: < 500 nM

CC[C@H](C)NCCC(=O)Nc1sc2c(c1-c1nc3cnccc3s1)CCN(C(C)C)C2 [Compound 239, (S)-3-(sec-butylamino)-N-(6-isopropyl-3-(thiazolo[4,5-c]pyridin-2-yl)-4,5,6,7-tetrahydrothieno[2,3-c]pyridin-2-yl)propanamide]
IC50 (c-Myc/Max/Ebox DNA): < 500 nM
IC50 [1]: < 500 nM

CC(=O)Nc1sc2c(c1-c1nc3c(C)nccc3s1)CCNC2 [Compound 118, N-(3-(4-methylthiazolo[4,5-c]pyridin-2-yl)-4,5,6,7-tetrahydrothieno[2,3-c]pyridin-2-yl)acetamide]
IC50 (c-Myc/Max/Ebox DNA): < 500 nM
IC50 [1]: < 500 nM

CCN1CCc2c(sc(NC(C)=O)c2-c2nc3cnccc3s2)[C@@H]1C [Compound 232, (S)—N-(6-ethyl-7-methyl-3-(thiazolo[4,5-c]pyridin-2-yl)-4,5,6,7-tetrahydrothieno[2,3-c]pyridin-2-yl)acetamide]
IC50 (c-Myc/Max/Ebox DNA): < 500 nM
IC50 [1]: < 500 nM

CC(=O)Nc1sc2c(c1-c1nc3cccnc3s1)CCNC2 [Compound 101, N-(3-(thiazolo[5,4-b]pyridin-2-yl)-4,5,6,7-tetrahydrothieno[2,3-c]pyridin-2-yl)acetamide]
IC50 (c-Myc/Max/Ebox DNA): 500 to 5000 nM
IC50 [1]: < 500 nM

CC(=O)Nc1sc2c(c1-c1nc3cnccc3s1)C(C)CN(C(C)C)C2 (centres unmarked) [Compound 107, N-(6-isopropyl-4-methyl-3-(thiazolo[4,5-c]pyridin-2-yl)-4,5,6,7-tetrahydrothieno[2,3-c]pyridin-2-yl)acetamide]
IC50 (c-Myc/Max/Ebox DNA): 500 to 5000 nM
IC50 [1]: 500 to 5000 nM

CCC(C)NCCC(=O)Nc1sc2c(c1-c1nc3cnccc3s1)CCNC2 (centres unmarked) [Compound 103, 3-(sec-butylamino)-N-(3-(thiazolo[4,5-c]pyridin-2-yl)-4,5,6,7-tetrahydrothieno[2,3-c]pyridin-2-yl)propanamide]
IC50 (c-Myc/Max/Ebox DNA): < 500 nM
IC50 [1]: < 500 nM

C[C@H]1NCCc2c1sc(NC(=O)CCN[C@@H]1C[C@H]3CNC[C@H]3C1)c2-c1nc2cnccc2s1 [Compound 249, N—((R)-7-methyl-3-(thiazolo[4,5-c]pyridin-2-yl)-4,5,6,7-tetrahydrothieno[2,3-c]pyridin-2-yl)-3-(((3aR,5s,6aS)-octahydrocyclopenta[c]pyrrol-5-yl)amino)propanamide]
IC50 (c-Myc/Max/Ebox DNA): < 500 nM
IC50 [1]: < 500 nM

O=C(CCNCCN1CCCCC1=O)Nc1sc2c(c1-c1nc3cnccc3s1)CCNC2 [Compound 158]
IC50 (c-Myc/Max/Ebox DNA): < 500 nM

N[C@@H]1[C@H]2CN(CCC(=O)Nc3sc4c(c3-c3nc5cnccc5s3)CCNC4)C[C@@H]12 [Compound 187]
IC50 (c-Myc/Max/Ebox DNA): < 500 nM

O=C(CCN1CC2(CCOC2)C1)Nc1sc2c(c1-c1nc3cnccc3s1)CCNC2 [Compound 125]
IC50 (c-Myc/Max/Ebox DNA): < 500 nM

Cc1cc(CNCCC(=O)Nc2sc3c(c2-c2nc4cnccc4s2)CCNC3)no1 [Compound 191]
IC50 (c-Myc/Max/Ebox DNA): 500 to 5000 nM

CN(CCC(=O)Nc1sc2c(c1-c1nc3cnccc3s1)CCNC2)Cc1ccc2[nH]ccc2c1 [Compound 214]
IC50 (c-Myc/Max/Ebox DNA): < 500 nM

CN(C)C1CN(CCC(=O)Nc2sc3c(c2-c2nc4cnccc4s2)CCNC3)C1 [Compound 161]
IC50 (c-Myc/Max/Ebox DNA): < 500 nM

C[C@H](NCCC(=O)Nc1sc2c(c1-c1nc3cnccc3s1)CCNC2)C1CC1 [Compound 137]
IC50 (c-Myc/Max/Ebox DNA): < 500 nM

O=C(CCNCC12CC(CN1)C2)Nc1sc2c(c1-c1nc3cnccc3s1)CCNC2 [Compound 174]
IC50 (c-Myc/Max/Ebox DNA): < 500 nM

COC1(C)CCN(CCC(=O)Nc2sc3c(c2-c2nc4cnccc4s2)CCNC3)CC1 [Compound 151]
IC50 (c-Myc/Max/Ebox DNA): < 500 nM

CC(NCCC(=O)Nc1sc2c(c1-c1nc3cnccc3s1)CCNC2)c1ncc[nH]1 (centres unmarked) [Compound 201]
IC50 (c-Myc/Max/Ebox DNA): < 500 nM

CN(CCC(=O)Nc1sc2c(c1-c1nc3cnccc3s1)CCNC2)Cc1nc2ccccc2s1 [Compound 205]
IC50 (c-Myc/Max/Ebox DNA): 5000 to 25000 nM

NC1CC(NCCC(=O)Nc2sc3c(c2-c2nc4cnccc4s2)CCNC3)C1 (centres unmarked) [Compound 195]
IC50 (c-Myc/Max/Ebox DNA): < 500 nM

COCC1CCCCN1CCC(=O)Nc1sc2c(c1-c1nc3cnccc3s1)CCNC2 (centres unmarked) [Compound 152]
IC50 (c-Myc/Max/Ebox DNA): < 500 nM

O=C(CCNCc1ncc[nH]1)Nc1sc2c(c1-c1nc3cnccc3s1)CCNC2 [Compound 215]
IC50 (c-Myc/Max/Ebox DNA): < 500 nM

Cc1ccsc1CNCCC(=O)Nc1sc2c(c1-c1nc3cnccc3s1)CCNC2 [Compound 171]
IC50 (c-Myc/Max/Ebox DNA): < 500 nM

O=C(CCNC(CO)c1ccc(F)cc1)Nc1sc2c(c1-c1nc3cnccc3s1)CCNC2 (centres unmarked) [Compound 139]
IC50 (c-Myc/Max/Ebox DNA): 500 to 5000 nM

CC(=O)Nc1sc2c(c1-c1nc3cnccc3s1)C[C@H](C)N[C@@H]2C [Compound 236]
IC50 [1]: < 500 nM

O=C(CCNCc1cscn1)Nc1sc2c(c1-c1nc3cnccc3s1)CCNC2 [Compound 160]
IC50 (c-Myc/Max/Ebox DNA): < 500 nM

O=C(CCNC1CCOC1)Nc1sc2c(c1-c1nc3cnccc3s1)CCNC2 (centres unmarked) [Compound 147]
IC50 (c-Myc/Max/Ebox DNA): < 500 nM

O=C(CCNCc1noc2c1CNCC2)Nc1sc2c(c1-c1nc3cnccc3s1)CCNC2 [Compound 209]
IC50 (c-Myc/Max/Ebox DNA): 500 to 5000 nM

O=C(CCN1C[C@H]2CN[C@H]2C1)Nc1sc2c(c1-c1nc3cnccc3s1)CCNC2 [Compound 154]
IC50 (c-Myc/Max/Ebox DNA): < 500 nM

COCC1CCCN1CCC(=O)Nc1sc2c(c1-c1nc3cnccc3s1)CCNC2 (centres unmarked) [Compound 169]
IC50 (c-Myc/Max/Ebox DNA): < 500 nM

CC1CC1NCCC(=O)Nc1sc2c(c1-c1nc3cnccc3s1)CCNC2 (centres unmarked) [Compound 145]
IC50 (c-Myc/Max/Ebox DNA): < 500 nM

O=C(CCNCC1CCC1)Nc1sc2c(c1-c1nc3cnccc3s1)CCNC2 [Compound 135]
IC50 (c-Myc/Max/Ebox DNA): < 500 nM

CC(=O)Nc1sc2c(c1-c1nc3cnccc3s1)CCN(CCN1CCOCC1)C2 [Compound 112]
IC50 (c-Myc/Max/Ebox DNA): 5000 to 25000 nM

O=C(CCN1CC2(C1)CS(=O)(=O)C2)Nc1sc2c(c1-c1nc3cnccc3s1)CCNC2 [Compound 128]
IC50 (c-Myc/Max/Ebox DNA): 500 to 5000 nM

Cc1cc(C)n(CCNCCC(=O)Nc2sc3c(c2-c2nc4cnccc4s2)CCNC3)n1 [Compound 136]
IC50 (c-Myc/Max/Ebox DNA): 500 to 5000 nM

O=C(CCNCCN1CCNCC1)Nc1sc2c(c1-c1nc3cnccc3s1)CCNC2 [Compound 193]
IC50 (c-Myc/Max/Ebox DNA): < 500 nM

O=C(CCN[C@@H]1C2CCC1NC2)Nc1sc2c(c1-c1nc3cnccc3s1)CCNC2 (some centres unmarked) [Compound 173]
IC50 (c-Myc/Max/Ebox DNA): < 500 nM

CN1CCN(CCC(=O)Nc2sc3c(c2-c2nc4cnccc4s2)CCNC3)CC1=O [Compound 162]
IC50 (c-Myc/Max/Ebox DNA): 500 to 5000 nM

CCN1[C@H](C)Cc2c(sc(NC(C)=O)c2-c2nc3cnccc3s2)[C@@H]1C [Compound 254]
IC50 (c-Myc/Max/Ebox DNA): > 25000 nM

O=C(CCN1CCC[C@@]2(CCCN2)C1)Nc1sc2c(c1-c1nc3cnccc3s1)CCNC2 [Compound 124]
IC50 (c-Myc/Max/Ebox DNA): < 500 nM

O=C(CCN1CCC2OCCC2C1)Nc1sc2c(c1-c1nc3cnccc3s1)CCNC2 (centres unmarked) [Compound 208]
IC50 (c-Myc/Max/Ebox DNA): < 500 nM

O=C(CCN1CCC2(CCOC2)C1)Nc1sc2c(c1-c1nc3cnccc3s1)CCNC2 (centres unmarked) [Compound 126]
IC50 (c-Myc/Max/Ebox DNA): < 500 nM

CC(NCCC(=O)Nc1sc2c(c1-c1nc3cnccc3s1)CCNC2)c1nc2ccccc2[nH]1 (centres unmarked) [Compound 197]
IC50 (c-Myc/Max/Ebox DNA): 5000 to 25000 nM

O=C(CCN1CC(F)(F)C1)Nc1sc2c(c1-c1nc3cnccc3s1)CCNC2 [Compound 194]
IC50 (c-Myc/Max/Ebox DNA): 500 to 5000 nM

O=C(CCN1CC2CCC(C1)O2)Nc1sc2c(c1-c1nc3cnccc3s1)CCNC2 [Compound 163]
IC50 (c-Myc/Max/Ebox DNA): 500 to 5000 nM

COC(=O)CCCNCCC(=O)Nc1sc2c(c1-c1nc3cnccc3s1)CCNC2 [Compound 168]
IC50 (c-Myc/Max/Ebox DNA): < 500 nM
